“And” between values parts separate entries of the source, which are not always exact repeats. Equal entries are not always repeated. Inconclusive results and toxic doses are left out. No stated cut-off is given here; in the data, active means T/C of 150% or more; inactive means T/C below 125%.
Tested on: L1210 leukemia ip in BDF1 mice, survival T/C
Test: NCI In Vivo Anticancer Drug Screen. Data for tumor model L1210 Leukemia (intraperitoneal) in B6D2F1 (BDF1) mice
Settings: endpoint: mean survival time, higher = longer survival
Method in brief: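 Tumor cells were implanted, animals were treated, and survival was followed. The result divides the treated measurement by the vehicle-control measurement.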

[1] = dose: 100.0 mg/kg/injection, schedule: Q01DX009 (ip), vehicle: saline with Tween-80
[2] = dose: 100.0 mg/kg/injection, schedule: Q04DX003 (ip), vehicle: saline with Tween-80
[3] = dose: 200.0 mg/kg/injection, schedule: Q01DX009 (ip), vehicle: saline with Tween-80
[4] = dose: 200.0 mg/kg/injection, schedule: Q04DX003 (ip), vehicle: saline with Tween-80
[5] = dose: 400.0 mg/kg/injection, schedule: Q01DX009 (ip), vehicle: saline with Tween-80
[6] = dose: 400.0 mg/kg/injection, schedule: Q04DX003 (ip), vehicle: saline with Tween-80
[7] = dose: 100.0 mg/kg/injection, schedule: Q01DX001 (ip), vehicle: saline
[8] = dose: 200.0 mg/kg/injection, schedule: Q01DX001 (ip), vehicle: saline
[9] = dose: 400.0 mg/kg/injection, schedule: Q01DX001 (ip), vehicle: saline
[10] = dose: 50.0 mg/kg/injection, schedule: Q01DX001 (ip), vehicle: saline
[11] = dose: 100.0 mg/kg/injection, schedule: Q01DX001 (ip), vehicle: carboxymethylcellulose (CMC)
[12] = dose: 200.0 mg/kg/injection, schedule: Q01DX001 (ip), vehicle: carboxymethylcellulose (CMC)
[13] = dose: 400.0 mg/kg/injection, schedule: Q01DX001 (ip), vehicle: carboxymethylcellulose (CMC)
[14] = dose: 100.0 mg/kg/injection, schedule: Q01DX009 (ip), vehicle: Klucel (hydroxypropylcellulose) (HPC)
[15] = dose: 100.0 mg/kg/injection, schedule: Q04DX003 (ip), vehicle: Klucel (hydroxypropylcellulose) (HPC)
[16] = dose: 200.0 mg/kg/injection, schedule: Q01DX009 (ip), vehicle: Klucel (hydroxypropylcellulose) (HPC)
[17] = dose: 200.0 mg/kg/injection, schedule: Q04DX003 (ip), vehicle: Klucel (hydroxypropylcellulose) (HPC)
[18] = dose: 400.0 mg/kg/injection, schedule: Q04DX003 (ip), vehicle: Klucel (hydroxypropylcellulose) (HPC)
[19] = dose: 50.0 mg/kg/injection, schedule: Q04DX002 (ip), vehicle: saline

Measured: T/C

O=C1c2ccccc2C2(c3ccccc31)C(C(=O)c1ccccc1)C2C(=O)c1ccccc1 (configuration not stated)
inactive: dose: 75.0 mg/kg/injection, schedule: Q01DX001 (ip), vehicle: carboxymethylcellulose (CMC) 94 % of control | dose: 150.0 mg/kg/injection, schedule: Q01DX001 (ip), vehicle: carboxymethylcellulose (CMC) 96 % of control | dose: 300.0 mg/kg/injection, schedule: Q01DX001 (ip), vehicle: carboxymethylcellulose (CMC) 91 % of control

CCCCCCCC/C=C\CCCCCCCC(=O)OC
inactive: [1] 91 % of control | [2] 96 % of control | [3] 92 % of control | [4] 100 % of control | [5] 95 % of control | [6] 98 % of control

CCOC(=O)c1[nH]cnc1N
inactive: [7] 96 % of control | [8] 94 % of control | [9] 96 % of control

COc1ccc(/C=N\NC(=O)CCCC(=O)N/N=C/c2ccc(OC)c(OC)c2)cc1OC
inactive: [10] 100 % of control | [7] 100 % of control | [8] 93 % of control | [9] 100 % of control

CC1(C)C2(C)CC12C (configuration not stated)
inactive: dose: 2.5 mg/kg/injection, schedule: Q01DX009 (ip), vehicle: saline 92 % of control | dose: 5.0 mg/kg/injection, schedule: Q01DX009 (ip), vehicle: saline 91 % of control | dose: 10.0 mg/kg/injection, schedule: Q01DX009 (ip), vehicle: saline 87 % of control

O=Cc1cc(O)c(O)c(Br)c1
inactive: dose: 75.0 mg/kg/injection, schedule: Q04DX003 (ip), vehicle: saline 100 % of control | dose: 150.0 mg/kg/injection, schedule: Q04DX003 (ip), vehicle: saline 87 % of control | dose: 300.0 mg/kg/injection, schedule: Q04DX003 (ip), vehicle: saline 98 % of control

CCCCCCC(=O)N(CC(C)C)CC(C)C
inactive: [11] 102 % of control | dose: 100.0 mg/kg/injection, schedule: Q01DX009 (ip), vehicle: carboxymethylcellulose (CMC) 93 % of control and 106 % of control | dose: 100.0 mg/kg/injection, schedule: Q04DX002 (ip), vehicle: carboxymethylcellulose (CMC) 97 % of control | dose: 100.0 mg/kg/injection, schedule: Q04DX003 (ip), vehicle: carboxymethylcellulose (CMC) 109 % of control | [12] 100 % of control | dose: 200.0 mg/kg/injection, schedule: Q01DX009 (ip), vehicle: carboxymethylcellulose (CMC) 104 % of control and 90 % of control | dose: 200.0 mg/kg/injection, schedule: Q04DX002 (ip), vehicle: carboxymethylcellulose (CMC) 102 % of control | dose: 200.0 mg/kg/injection, schedule: Q04DX003 (ip), vehicle: carboxymethylcellulose (CMC) 102 % of control | [13] 90 % of control | dose: 400.0 mg/kg/injection, schedule: Q04DX002 (ip), vehicle: carboxymethylcellulose (CMC) 100 % of control | dose: 400.0 mg/kg/injection, schedule: Q04DX003 (ip), vehicle: carboxymethylcellulose (CMC) 100 % of control

C/C(=N\N=C(/C)c1ccccc1O)c1ccccc1O
inactive: dose: 100.0 mg/kg/injection, schedule: Q04DX002 (ip), vehicle: gum acacia 96 % of control | dose: 200.0 mg/kg/injection, schedule: Q04DX002 (ip), vehicle: gum acacia 93 % of control | dose: 400.0 mg/kg/injection, schedule: Q04DX002 (ip), vehicle: gum acacia 101 % of control

CCOc1ccc(N2CSC(=S)N(c3ccc(OCC)cc3)C2)cc1
inactive: [14] 96 % of control | [15] 92 % of control | [16] 99 % of control | [17] 92 % of control | [18] 92 % of control

O=S=Nc1c(Cl)cc(Cl)cc1Cl
inactive: [14] 101 % of control | [16] 104 % of control | dose: 400.0 mg/kg/injection, schedule: Q01DX009 (ip), vehicle: Klucel (hydroxypropylcellulose) (HPC) 108 % of control

Cc1cc(Cc2cccc[n+]2[O-])c2ccccc2n1
inactive: [15] 102 % of control | [17] 96 % of control

CN1CCSC1=S
inactive: dose: 50.0 mg/kg/injection, schedule: Q01DX009 (ip), vehicle: Klucel (hydroxypropylcellulose) (HPC) 92 % of control | [14] 100 % of control | [15] 105 % of control | [16] 105 % of control | [17] 105 % of control | [18] 94 % of control

CC(=O)Nc1ccc(/C=N\NC(=O)N/N=C/c2ccc(NC(C)=O)cc2)cc1
inactive: dose: 50.0 mg/kg/injection, schedule: Q04DX003 (ip), vehicle: Klucel (hydroxypropylcellulose) (HPC) 90 % of control | [15] 91 % of control

O=C1CCCCc2ccc([N+](=O)[O-])cc21
inactive: dose: 50.0 mg/kg/injection, schedule: Q01DX001 (ip), vehicle: other 86 % of control | dose: 100.0 mg/kg/injection, schedule: Q01DX001 (ip), vehicle: other 98 % of control | dose: 200.0 mg/kg/injection, schedule: Q01DX001 (ip), vehicle: other 96 % of control | dose: 400.0 mg/kg/injection, schedule: Q01DX001 (ip), vehicle: other 88 % of control

CC(Cl)CN1c2ccccc2Sc2ccc(Cl)cc21 (configuration not stated)
inactive: [11] 97 % of control | [12] 95 % of control | [13] 92 % of control

Nc1ncnc2nc[nH]c12.[Tl]
inactive: dose: 3.12 mg/kg/injection, schedule: Q01DX009 (ip), vehicle: water 95 % of control | dose: 3.12 mg/kg/injection, schedule: Q04DX003 (ip), vehicle: water 103 % of control | dose: 6.25 mg/kg/injection, schedule: Q01DX009 (ip), vehicle: water 95 % of control | dose: 6.25 mg/kg/injection, schedule: Q04DX003 (ip), vehicle: water 108 % of control | dose: 12.5 mg/kg/injection, schedule: Q04DX003 (ip), vehicle: water 105 % of control

COc1cc2c(c(OC)c1OC)-c1ccc(SCC3CCC4CC3C4(C)C)c(=O)cc1C(NC(C)=O)CC2 (configuration not stated)
inactive: dose: 12.5 mg/kg/injection, schedule: Q04DX002 (ip), vehicle: saline 100 % of control | dose: 25.0 mg/kg/injection, schedule: Q04DX002 (ip), vehicle: saline 95 % of control | [19] 106 % of control

Cc1ccc(S(=O)(=O)OC2CCCC3CCCCC32)cc1 (configuration not stated)
inactive: [7] 98 % of control | [8] 100 % of control | [9] 98 % of control

CCOC(=O)c1ccc(N(C=O)CCC(=O)CCl)cc1
inactive: dose: 3.0 mg/kg/injection, schedule: Q01DX009 (ip), vehicle: saline 104 % of control | dose: 5.0 mg/kg/injection, schedule: Q01DX001 (ip), vehicle: saline 95 % of control | dose: 6.0 mg/kg/injection, schedule: Q01DX009 (ip), vehicle: saline 100 % of control | dose: 10.0 mg/kg/injection, schedule: Q01DX001 (ip), vehicle: saline 102 % of control | dose: 12.0 mg/kg/injection, schedule: Q01DX009 (ip), vehicle: saline 94 % of control | dose: 12.5 mg/kg/injection, schedule: Q01DX009 (ip), vehicle: carboxymethylcellulose (CMC) 107 % of control | dose: 20.0 mg/kg/injection, schedule: Q01DX001 (ip), vehicle: saline 104 % of control | dose: 25.0 mg/kg/injection, schedule: Q01DX009 (ip), vehicle: carboxymethylcellulose (CMC) 107 % of control | dose: 40.0 mg/kg/injection, schedule: Q01DX001 (ip), vehicle: saline 106 % of control

CCOCCOCCC(=O)OC
inactive: dose: 62.5 mg/kg/injection, schedule: Q01DX001 (ip), vehicle: Klucel (hydroxypropylcellulose) (HPC) 95 % of control | dose: 125.0 mg/kg/injection, schedule: Q01DX001 (ip), vehicle: Klucel (hydroxypropylcellulose) (HPC) 89 % of control | dose: 250.0 mg/kg/injection, schedule: Q01DX001 (ip), vehicle: Klucel (hydroxypropylcellulose) (HPC) 113 % of control

C=C(NC(=O)Cc1ccccc1)C(=O)OC
inactive: [1] 92 % of control | [2] 102 % of control | [3] 95 % of control | [4] 95 % of control | [5] 95 % of control | [6] 91 % of control

CCSC(SCC)C(N)C(O)C(O)C(O)CO (configuration not stated)
inactive: [19] 103 % of control | dose: 100.0 mg/kg/injection, schedule: Q04DX002 (ip), vehicle: saline 103 % of control | dose: 200.0 mg/kg/injection, schedule: Q04DX002 (ip), vehicle: saline 109 % of control

Oc1ccc2c(c1)Cc1cc3ccccc3nc1-2
inactive: [10] 98 % of control | [7] 95 % of control | [8] 97 % of control | [9] 93 % of control
